Values belong to the molecule of their own block, whether it stands above or below them.
Assays:
[1] = tested on: PGE2 synthesis in HT-29 cells; assay: Inhibition of the PGE2 synthesis in HT-29 cells (PGE2 EIA); assay type: cell-based; settings: 24 h at 37 °C, then 50 µM arachidonic acid 1 h
Protocol: Exponentially growing HT-29 cells were seeded into 24-well plates at a concentration of 5 × 10^4 cells in 500 µL of cell culture medium per well. […] In the next step, the substrate arachidonic acid (Sigma Aldrich, St. Louis, MO, USA) at a concentration of 50 µM was added. After 1 h, the COX-catalyzed PGE2 production was stopped by removing the supernatant from the cells, which was analyzed by EIA (Prostaglandin E2 Kit—Monoclonal, Cayman Chemicals, Ann Arbor, MI, USA) according to the manufacturer’s protocol.
HT-29 cells express both isoenzymes at high levels, allowing COX-1/2 interaction to be studied using an antibody-based PGE2 assay, which quantifies the PGE2 released by the cells into the cell culture medium. All Zeise’s salt derivatives were tested at a concentration of 10 µM (Figure 4).

COX-1 [2] = target: T1, COX-1 (Ovis aries, UniProt P05979); parameters: method as in PMID 29492489, PMID 31617517; settings: isolated isoenzymes; cited from earlier work
T1 construct: purchased Cayman Chemicals
T1 sequence (P05979 25-600): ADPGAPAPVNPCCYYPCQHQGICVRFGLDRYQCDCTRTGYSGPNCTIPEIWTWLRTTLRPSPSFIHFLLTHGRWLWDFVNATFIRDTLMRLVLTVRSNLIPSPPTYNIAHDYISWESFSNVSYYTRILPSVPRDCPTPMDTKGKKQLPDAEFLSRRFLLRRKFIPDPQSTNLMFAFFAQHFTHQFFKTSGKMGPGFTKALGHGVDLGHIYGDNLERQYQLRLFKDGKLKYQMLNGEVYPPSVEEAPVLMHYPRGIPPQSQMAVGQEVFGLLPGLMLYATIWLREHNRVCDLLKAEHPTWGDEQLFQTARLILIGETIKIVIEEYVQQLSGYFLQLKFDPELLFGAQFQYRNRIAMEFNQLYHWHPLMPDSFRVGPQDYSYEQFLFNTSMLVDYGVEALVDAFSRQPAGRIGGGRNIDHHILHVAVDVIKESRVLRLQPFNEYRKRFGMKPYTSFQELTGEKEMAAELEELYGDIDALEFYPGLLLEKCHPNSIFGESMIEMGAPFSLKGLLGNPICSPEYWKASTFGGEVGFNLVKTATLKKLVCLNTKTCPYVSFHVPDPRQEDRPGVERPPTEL

COX-2 [3] = target: T2, COX-2 (Homo sapiens, UniProt P35354); parameters: method as in PMID 29492489, PMID 31617517; settings: isolated isoenzymes; cited from earlier work
T2 construct: purchased Cayman Chemicals
T2 sequence (P35354 18-604): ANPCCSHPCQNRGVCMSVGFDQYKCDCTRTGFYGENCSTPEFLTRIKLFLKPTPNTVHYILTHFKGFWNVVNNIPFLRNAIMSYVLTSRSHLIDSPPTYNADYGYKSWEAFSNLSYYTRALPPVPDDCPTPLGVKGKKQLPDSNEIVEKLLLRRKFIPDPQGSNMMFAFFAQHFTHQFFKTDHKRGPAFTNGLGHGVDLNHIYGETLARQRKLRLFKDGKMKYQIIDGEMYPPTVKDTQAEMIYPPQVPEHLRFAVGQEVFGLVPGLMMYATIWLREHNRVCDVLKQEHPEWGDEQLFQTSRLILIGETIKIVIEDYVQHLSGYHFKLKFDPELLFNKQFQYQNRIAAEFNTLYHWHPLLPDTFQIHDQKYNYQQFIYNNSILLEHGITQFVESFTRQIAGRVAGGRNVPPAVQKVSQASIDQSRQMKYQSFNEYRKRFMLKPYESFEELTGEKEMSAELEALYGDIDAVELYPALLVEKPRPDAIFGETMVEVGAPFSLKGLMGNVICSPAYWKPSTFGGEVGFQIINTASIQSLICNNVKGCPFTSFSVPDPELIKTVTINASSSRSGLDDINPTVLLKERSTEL

[4] = Complex stability by capillary electrophoresis (decrease of initial complex over time); assay type: physicochemical; settings: MeOH/water (50/50, v/v), 1 mM, 37 °C, CE
Protocol: The analysis was performed as previously described. A 50 mM sodium tetraborate solution (pH = 9.3, adjusted with 1 M NaOH), served as background electrolyte (BGE). Washing of novel capillaries consecutively with 1 M NaOH (45 min), water (45 min), and BGE (45 min) was performed. The hydrodynamic injection mode was utilized to introduce the samples into the capillary (50 mbar for 2 s). The capillary was kept at 25 °C, and the autosampler was thermostatted at 37 °C with an external water bath. For separation, the voltage was set to 20 kV, and the detection was carried out at the wavelength of 230 nm. Before each measurement, flushing of the capillary with 0.1 M NaOH (3 min), water (3 min), and BGE (5 min) took place. The samples were dissolved in methanol (MeOH) and further diluted in equal parts by volume with water to give a final concentration of 1 mM. Triple determinations were performed, and the half-lives (τ½) are presented as mean ± SD of ≥3 independent experiments. Samples, washing solutions, and buffers were filtered through a membrane with 0.22 µm porosity and degassed by ultrasonication before use. To simplify the reaction dynamics from a possible second-order to pseudo-first-order, one of two reactants must be present in great excess (>10 to 25-fold). If this condition is fulfilled, logarithmic plotting of the gradual decrease in the other reactant’s concentration (or increase in the concentration of a product, respectively) against the time yields a straight line, and half-lives can be calculated.
An already-established method was used to study the stability of the X-ASA-Prop-PtCl3 and X-ASA-But-PtCl3 complexes. The degradation products were separated by capillary electrophoresis using a fused-silica capillary ([…] × 75 µm, effective length: 56 cm, capillary temperature: 25 °C) and a 50 mM tetraborate buffer (pH = 9.3) as BGE. For separation, the voltage was set to 20 kV and the compounds were detected at 230 nm. Benzoic acid was used as an internal standard. Exemplary electropherograms of each complex can be found in the Supplementary Material (Figures S1–S24).
The complexes (1 mM) were dissolved in MeOH or MeOH/water (50/50, v/v) and stored at 37 °C. The decrease in the initial amount of complex was monitored time-dependently by CE, and the half-life (τ½) was calculated (Table 2).

HT-29 cells = tested on: HT-29 cells; parameters: method as in PMID 29848978; settings: COX-1/2-positive HT-29 colon carcinoma cells; cited from earlier work
MCF-7 cells = tested on: MCF-7 cells; parameters: method as in PMID 29848978; settings: COX-negative MCF-7 breast cancer cells; cited from earlier work
COX-1 [5] = target: T1, COX-1; assay: COX Inhibitor Screening Assay (EIA) on isolated COX-1 isoenzyme; assay type: biochemical, ovine; settings: incubation 10 min
Protocol: (§1) The incubation of the respective complexes with the isoenzymes was exactly 10 min. The values of COX inhibition were calculated as the mean of duplicates and shown as the mean ± SD of ≥2 independent experiments.

COX-2 [6] = target: T2, COX-2; assay: COX Inhibitor Screening Assay (EIA) on isolated COX-2 isoenzyme; assay type: biochemical; settings: incubation 10 min
Protocol: as §1

[7] = parameters: method as in doi:10.1002/zaac.19603050315; settings: forms elemental platinum in an internal redox reaction; cited from earlier work

Structure (SMILES): CC(=O)Oc1ccccc1C(=O)O [ASA, Acetylsalicylic acid]
- inhibition at 10 µM ([1]; Homo sapiens): 17.9%
- Concentration causing significant effects on COX-1 (COX-1 [2]): higher than 100 µM
- Concentration causing significant effects on COX-2 (COX-2 [3]): higher than 100 µM

- Half-life (τ½) [4]: 69.6 h
Structure (SMILES): CC(=O)Oc1ccccc1C(=O)OCC[CH]1[CH2][Pt-]1([Cl])([Cl])[Cl].[K+] (stereo not drawn) [ASA-But-PtCl3]
- Growth inhibition in HT-29 cells (HT-29 cells): low growth inhibitory potential
- Growth inhibition in MCF-7 cells (MCF-7 cells): nearly inactive

- Half-life (τ½) [4]: 0.595 h
Structure (SMILES): CC(=O)Oc1ccccc1C(=O)OC[CH]1[CH2][Pt-]1([Cl])([Cl])[Cl].[K+] (stereo not drawn) [ASA-Prop-PtCl3]
- Growth inhibition in HT-29 cells (HT-29 cells): low growth inhibitory potential
- Growth inhibition in MCF-7 cells (MCF-7 cells): nearly inactive

- Inhibition of COX-1 (COX-1 [5]; 1 µM): 37.3%
- Inhibition of COX-1 (COX-1 [5]; 10 µM): 94.4%
- Inhibition of COX-2 (COX-2 [6]; 1 µM): 1.5%
- Inhibition of COX-2 (COX-2 [6]; 10 µM): 8.3%
Structure (SMILES): C=C.O.[Cl][Pt-]([Cl])[Cl].[K+] [Zeise’s salt]
- Inhibition of PGE2 synthesis ([1]; 10 µM): 24.5%
- Stability in aqueous environment [7]: not stable
